In patent US9949971B2, “Therapeutic combinations of a BTK inhibitor, a PI3K inhibitor and/or a JAK-2 inhibitor” (Acerta Pharma B.V., priority 2014, dated 2018):

Legend:
[1] = in vivo; cited from earlier work
previously treated CLL = conditions: Phase 1, monotherapy; cited from earlier work
[2] = Glutathione binding and depletion in vitro; format: in vitro ADME
NK cells [3] = experiment: rituximab ADCC mediated by NK cells; format: cell-based
Source text: H. E. Kohrt, et al., Blood 2014, 123, 1957-60.

CYP3A4 = CYP3A4 (Homo sapiens, UniProt P08684); experiment: In vitro loss of parent drug as catalyzed by CYPs; nonclinical CYP interaction studies; format: in vitro ADME
GPVI = GPVI platelet aggregation (Convulxin-induced); format: cell-based, human; conditions: for inhibition of GPVI platelet aggregation: human platelets, CVX-induced
Protocol: GPVI platelet aggregation was measured for Formula (XVIII) and Formula XX-A (ibrutinib). Blood was obtained from untreated humans, and platelets were purified from […] by centrifugation. Cells were resuspended to a final concentration of 350,000/μL in buffer containing 145 mmol/L NaCl, 10 mmol/L HEPES, 0.5 mmol/L Na2HPO4, 5 mmol/L KCl, 2 mmol/L MgCl2, 1 mmol/L CaCl2, and 0.1% glucose, at pH 7.4. Stock solutions of […] were prepared on the day of experimentation and added to platelet suspensions 5 minutes (37° C., 1200 rpm) before the induction of aggregation. Aggregation was assessed with a Chronolog Lumi-Aggregometer (model 540 VS; Chronolog, Havertown, Pa.) and permitted to proceed for 6 minutes after the addition of agonist. The results are reported as maximum percent change in light transmittance from baseline with platelet buffer used as a reference.
In FIG. 97, the results of CVX-induced (250 ng/mL) human platelet aggregation results before and 15 minutes after administration of the BTK inhibitors to 6 healthy individuals are shown.

[4] = system: NK cells and monocytic MDSC subsets; experiment: Flow cytometry of peripheral blood cell subsets in CLL patients, predose vs 28 days; format: in vivo, human; conditions: patients with falling ALC counts; after 28 days of dosing
Protocol: PBMCs were stained with monoclonal antibodies conjugated to fluorescent tags (flourochromes) to identify cell subsets via flow cytometry. Non-viable cells were excluded from the analysis using the dye 7-aminoactinomycin D (7-AAD). To produce the metric of percent change, the following steps were taken. First, each cell subset was defined by hierarchical flow cytometry gating. Then, the change in frequency (between day 1 and day 28) was calculated for each cell subset. MDSC subsets were measured as a % of all myeloid cells. T cell subsets were measured as a % of all CD3^+ cells, and NK cells were measured as a % of all live CD45^+ cells. […] A cycle is 28 days. A trend is observed wherein patients with decreasing ALC % had increasing MDSC (monocytic) %. This may include patients who had quickly resolving lymphocytosis and those with no initial lymphocytosis. […] This may include patients who had quickly resolving lymphocytosis and those having no initial lymphocytosis. The effects in FIG. 107 to FIG. 110 are observed in multiple cohorts, at doses including 100 mg BID, 200 mg QD, and 400 mg QD. In FIG. 111 and FIG. 112, the effects on NK cells and MDSC cells are compared to a number of other markers versus % change in ALC at C1D28 and C2D28. These other markers include CD4+ T cells, CD8+ T cells, CD4+/CD8+ T cell ratio, NK-T cells, PD-1+ CD4+ T cells, and PD-1+ CD8+ T cells. […]

BCR = experiment: in vivo potency: BCR activation markers CD69 and CD86 after IgM stimulation; parameters: species or system mouse; conditions: mice gavaged, 3 hours post-dose, BCR stimulated with IgM, flow cytometry
Protocol: Mice were gavaged at increasing drug concentration and sacrificed at one time point (3 hours post-dose). BCR is stimulated with IgM and the expression of activation markers CD69 and CD86 are monitored by flow cytometry to determine EC50values.
CD86 and CD69 are cell surface proteins that are BCR activation markers. […] BCR was stimulated with IgM and the expression of activation marker CD69 and CD86 are monitored by flow cytometry and to determine EC50 values.

[5] = functional observation battery (GLP safety pharmacology); conditions: rats, doses through 300 mg/kg (the highest dose level)
BTK = molecular target: T1, BTK (Mus musculus, UniProt P35991); experiment: Molecular probe assay of irreversible BTK occupancy in MDSCs from tumor bearing PDA mice; format: in vivo; conditions: 15 mg/kg BID, Day 8, 4 hours post dose (N=5)
T1 construct: MDSCs were purified from tumor bearing PDA mice; endogenous in cells; host or cells: granulocytic and monocytic MDSCs from tumor bearing PDA mice
Source text: A molecular probe assay was used to calculate the percent irreversible occupancy of total BTK.

EGFR = EGFR (Homo sapiens, UniProt P00533); experiment: in vitro EGFR phosphorylation in A431 cells; conditions: 10 μM, A431 human epidermoid cancer cell line
[6] = study of respiratory function (GLP safety pharmacology); conditions: rats, doses through 300 mg/kg (the highest dose level)
[7] = system: mouse, rat, dog, rabbit, monkey, and human hepatocytes; experiment: In vitro metabolism studies in hepatocytes with 14C-labeled compound; format: in vitro ADME
NK cells [8] = experiment: NK cell degranulation/ADCC whole blood assay with obinutuzumab; format: cell-based, human; conditions: whole blood pretreated 1 hour, MEC-1 cells opsonised with obinutuzumab 1 μg/mL, 4 hours, n=3
Protocol: Degranulation in whole blood was performed as follows. […] Exponentially growing cells were used. On the day of the experiment, 8 mL of blood was drawn from a normal volunteer into a test tube containing desirudin to obtain a final concentration of 50 μg/mL. A white blood cell (WBC) count of whole blood was performed. […] 170 μL aliquots of unmanipulated whole blood were incubated with 10 μL BTK inhibitors or X-VIVO 15 medium for one hour into a plate. […] The samples were placed in a 5% CO2 incubator for 4 hours at 37° C.
After 4 hours, the samples were mixed gently and 50 μL aliquots were removed from each well and placed in fluorescence-activated cell sorting (FACS) test tubes. A 20 μL aliquot of anti-CD56-APC antibody and anti-CD107a-PE antibody was added. The samples were incubated for 20 minutes at room temperature in the dark. An aliquot of 2 mL of FACS lysing solution (BD Biosceinces) was added. The samples were again incubated for 5 minutes, and then centrifuged at 2000 rpm for 5 minutes. Supernatant was discarded and the cell pellet was resuspended in 500 μL of PBS. The samples were analyzed on the flow cytometer for CD107a^+ NK cells (CD56^+).

B cell lymphoma = experiment: veterinary clinical trial in canine lymphoma; format: in vivo, dog; conditions: companion dogs with B cell lymphoma
[9] = system: signals through the B cell receptor (CD69 on gated CD19+ B cells); experiment: Whole blood inhibition of B cell receptor signals (anti-IgD induced CD69 on CD19+ B cells, flow cytometry); format: cell-based; conditions: whole blood of four healthy donors, 2 h incubation, anti-human IgD 10 μg/mL 18 h
Protocol: Blood from four healthy donors was incubated for 2 hours with the compounds shown over a concentration range, and then stimulated with anti-human IgD [10 μg/mL] for 18 hours. The mean fluorescent intensity (MFI) of CD69 (and CD86, data not shown) on gated CD19+ B cells was measured by flow cytometry.

[10] = system: human platelet-mediated thrombosis; experiment: in vivo human thrombus formation in the VWF HA1 mice model (laser injury); conditions: human platelets preincubated with BTK inhibitor, laser-induced injury
Protocol: Purified human platelets were preincubated with various concentrations of the BTK inhibitors (0.1 μM, 0.5 μM, or 1 μM) or DMSO and then administered to VWF HA1 mice, followed by laser-induced thrombus formation.
The objective of this study was to evaluate in vivo thrombus formation in the presence of BTK inhibitors.

CYP3A4, sequence (P08684 whole entry): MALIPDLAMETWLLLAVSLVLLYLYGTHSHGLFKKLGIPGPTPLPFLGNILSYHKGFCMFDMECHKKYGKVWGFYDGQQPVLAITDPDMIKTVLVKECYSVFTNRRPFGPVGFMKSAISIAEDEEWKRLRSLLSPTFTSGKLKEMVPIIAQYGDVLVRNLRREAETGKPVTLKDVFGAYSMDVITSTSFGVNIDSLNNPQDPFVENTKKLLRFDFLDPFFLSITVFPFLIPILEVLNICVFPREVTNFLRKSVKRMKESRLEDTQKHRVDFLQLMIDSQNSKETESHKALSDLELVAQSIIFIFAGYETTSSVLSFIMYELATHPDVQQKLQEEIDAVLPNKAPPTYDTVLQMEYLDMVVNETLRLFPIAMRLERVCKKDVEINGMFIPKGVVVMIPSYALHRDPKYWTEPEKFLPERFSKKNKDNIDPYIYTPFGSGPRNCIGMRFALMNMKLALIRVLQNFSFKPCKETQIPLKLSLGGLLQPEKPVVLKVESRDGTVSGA
T1 sequence (P35991 whole entry): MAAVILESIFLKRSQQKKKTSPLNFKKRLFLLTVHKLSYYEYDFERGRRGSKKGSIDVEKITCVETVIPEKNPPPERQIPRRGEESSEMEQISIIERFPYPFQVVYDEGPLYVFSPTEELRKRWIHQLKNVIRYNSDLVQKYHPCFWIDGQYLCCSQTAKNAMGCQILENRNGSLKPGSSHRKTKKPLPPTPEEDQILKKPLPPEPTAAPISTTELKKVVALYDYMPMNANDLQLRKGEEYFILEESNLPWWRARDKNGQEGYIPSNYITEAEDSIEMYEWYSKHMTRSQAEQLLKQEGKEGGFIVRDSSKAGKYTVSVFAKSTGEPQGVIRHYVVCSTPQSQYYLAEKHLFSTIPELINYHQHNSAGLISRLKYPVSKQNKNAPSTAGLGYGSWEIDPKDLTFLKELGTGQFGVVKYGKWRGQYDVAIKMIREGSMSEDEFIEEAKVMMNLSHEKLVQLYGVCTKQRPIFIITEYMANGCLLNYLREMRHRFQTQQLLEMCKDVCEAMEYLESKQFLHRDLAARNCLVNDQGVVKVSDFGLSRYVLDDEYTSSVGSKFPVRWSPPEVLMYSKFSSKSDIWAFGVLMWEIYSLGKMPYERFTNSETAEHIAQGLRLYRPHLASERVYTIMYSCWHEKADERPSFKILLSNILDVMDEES
EGFR, sequence (P00533 25-1210): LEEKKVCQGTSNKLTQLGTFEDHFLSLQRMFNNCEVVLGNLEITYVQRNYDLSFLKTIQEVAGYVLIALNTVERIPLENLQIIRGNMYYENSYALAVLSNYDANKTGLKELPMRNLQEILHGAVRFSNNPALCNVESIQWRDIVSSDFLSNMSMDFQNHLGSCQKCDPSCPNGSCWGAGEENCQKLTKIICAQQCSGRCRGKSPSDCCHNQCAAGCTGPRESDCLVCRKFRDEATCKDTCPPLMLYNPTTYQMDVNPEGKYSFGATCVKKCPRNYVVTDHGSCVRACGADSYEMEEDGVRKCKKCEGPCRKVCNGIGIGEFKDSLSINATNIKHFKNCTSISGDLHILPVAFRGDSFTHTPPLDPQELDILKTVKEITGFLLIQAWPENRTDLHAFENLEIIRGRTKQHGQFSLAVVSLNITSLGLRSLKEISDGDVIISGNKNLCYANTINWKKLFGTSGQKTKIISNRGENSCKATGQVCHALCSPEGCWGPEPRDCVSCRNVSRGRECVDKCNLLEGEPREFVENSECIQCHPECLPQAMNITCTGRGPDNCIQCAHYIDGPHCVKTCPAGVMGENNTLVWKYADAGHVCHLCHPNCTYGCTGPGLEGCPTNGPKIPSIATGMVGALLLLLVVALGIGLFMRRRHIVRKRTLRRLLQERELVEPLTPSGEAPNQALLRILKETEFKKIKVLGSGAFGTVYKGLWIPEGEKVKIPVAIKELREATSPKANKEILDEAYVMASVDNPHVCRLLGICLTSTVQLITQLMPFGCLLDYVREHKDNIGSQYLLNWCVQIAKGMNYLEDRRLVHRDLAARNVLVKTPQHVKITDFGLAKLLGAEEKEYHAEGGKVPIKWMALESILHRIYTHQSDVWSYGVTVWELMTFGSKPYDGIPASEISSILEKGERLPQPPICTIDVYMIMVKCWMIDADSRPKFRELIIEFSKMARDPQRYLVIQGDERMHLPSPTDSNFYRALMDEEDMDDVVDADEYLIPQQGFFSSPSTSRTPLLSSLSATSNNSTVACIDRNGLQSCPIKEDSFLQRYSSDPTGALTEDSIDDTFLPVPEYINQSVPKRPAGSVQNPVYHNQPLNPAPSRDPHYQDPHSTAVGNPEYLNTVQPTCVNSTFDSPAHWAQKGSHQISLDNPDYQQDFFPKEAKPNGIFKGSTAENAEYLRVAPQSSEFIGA

Compound: obinutuzumab: type II glycoengineered CD20 monoclonal antibody
- Grade 3 IRRs [1]: 15%
- Grade 3 reactions among hypotension cases [1]: 25%
- Grade 4 IRRs [1]: no Grade 4
- IRR cases developing symptoms of hypotension [1]: 60%
- Patients developing IRR [1]: 95%
- Patients experiencing IRRs [1]: all patients
- Patients experiencing all grade AE [1]: 100%
- MRD-negative complete response, number (previously treated CLL): 1
- Response rate (previously treated CLL): 62%

Compound: CC#CC(=O)N1CCC[C@H]1c1nc(-c2ccc(C(=O)Nc3ccccn3)cc2)c2c(N)nccn12 [Formula (XVIII), (S)-4-(8-amino-3-(1-(but-2-ynoyl)pyrrolidin-2-yl)imidazo[1,5-a]pyrazin-1-yl)-N-(pyridin-2-yl)benzamide]
- Glutathione binding / depletion [2]: binds to glutathione but does not deplete glutathione
- antagonism of rituximab ADCC effects mediated by NK cells (NK cells [3]): does not antagonize rituximab ADCC effects
- Metabolism by CYPs (loss of parent drug) (CYP3A4; in vitro): metabolized by CYP3A4
- Potential for clinical drug-drug interactions through CYP substrates (CYP3A4; nonclinical CYP interaction studies): very unlikely to cause clinical drug-drug interactions
- IC50 (GPVI; Platelet, purified human platelets, Convulxin (CVX)): 1150 nM
- inhibition of GPVI platelet aggregation (GPVI): does not
- NK cells and monocytic MDSC subsets in peripheral blood [4]: increase in frequency
- in vivo potency at inhibiting expression of activation markers CD69 and CD86, versus ibrutinib (BCR): more potent
- neurobehavioral effects or body temperature [5]: no adverse effects
- Irreversible occupancy of total BTK in granulocytic and monocytic MDSCs (BTK): Complete BTK occupancy
- inhibition of in vitro EGFR phosphorylation (EGFR): no inhibition
- respiratory function [6]: no treatment-related adverse effects
- Metabolites formed in hepatocytes ([7]; 14C-labeled compound, mouse, rat, dog, rabbit, monkey, human hepatocytes): two mono-oxidized metabolites and a glutathione conjugate
- Unique human metabolite ([7]; hepatocytes): No unique human metabolite was identified
- effect on percentage of CD56+/CD107a+ NK cells (obinutuzumab-stimulated NK cell degranulation) (NK cells [8]): minimal effect
- complete responses (CR) (B cell lymphoma): not observed

Compound: C=CC(=O)Nc1cccc(Nc2nc(Nc3ccc(OCCOC)cc3)ncc2F)c1 [CC-292]
- EC50 [9]: 121 nM

Compound: C=CC(=O)Nc1cccc(Nc2nc(Nc3ccc(OCCOC)cc3)ncc2F)c1 [Formula (XXVII), N-(3-((5-fluoro-2-((4-(2-methoxyethoxy)phenyl)amino)pyrimidin-4-yl)amino)phenyl)acrylamide]
- effect on human platelet-mediated thrombus formation [10]: effect similar to Formula XX-A (ibrutinib)

Compound: C=CC(=O)N1CCC[C@@H](n2nc(-c3ccc(Oc4ccccc4)cc3)c3c(N)ncnc32)C1 [ibrutinib, 1-[(3R)-3-[4-amino-3-(4-phenoxyphenyl)-1H-pyrazolo[3,4-d]pyrimidin-1-yl]piperidin-1-yl]prop-2-en-1-one]
- antagonism of rituximab ADCC effects mediated by NK cells (NK cells [3]): undesirably antagonizes rituximab ADCC effects
- inhibition of GPVI platelet aggregation (GPVI): significantly inhibits GPVI platelet aggregation
